Results reported in ChEMBL document CHEMBL1201862, “PubChem BioAssay data set” (2004).
Calls of active or inactive are those of the source.

How the values were obtained:
Cytochrome P450 2C19 = Cytochrome P450 2C19 (Homo sapiens, UniProt P33261); assay: Cytochrome panel assay with activity outcomes. Panel member name: p450-cyp2c19 Compounds with AC50 equal or less than 10 uM are considered active; type: functional
Cytochrome P450 2D6 = Cytochrome P450 2D6 (Homo sapiens, UniProt P10635);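 note: CYP2D6 member of a cytochrome P450 panel assay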
Cytochrome P450 3A4 = Cytochrome P450 3A4 (Homo sapiens, UniProt P08684);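 note: CYP3A4 tested as one member of a cytochrome P450 panel screen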
[1] = molecular target: Voltage-dependent T-type calcium channel subunit alpha-1H (Homo sapiens, UniProt O95180); type: functional;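 note: channel activity triggered by adding a high calcium stimulation buffer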
BJ [2] = assay: cytotoxicity toward BJ-TERT-LT-ST fibroblasts, dose response, cell-based, RAS-independent, luminescence (AID 1935); type: functional; settings: Homo sapiens;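 note: BJ fibroblasts immortalized with TERT plus LT and ST oncogenes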
[3] = growth suppression of PTEN-null colon cells, dose response, cell-based, HCT116 PTEN knockout (AID 1047); type: functional;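 note: HCT116 colon tumor cells with PTEN knocked out; cells exposed to compound for 60 hours before readout; potency for loss of cell viability measured by luminescence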
[4] = NIH-3T3 fibroblast cytotoxicity, dose response, cytotoxicity control, cell-based, fluorescence, Alamar Blue, secondary assay (AID 2327); type: functional;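 note: NIH-3T3 mouse fibroblasts cultured with fluconazole at 8 µg/mL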
[5] = growth suppression of beta-catenin-knockout colon cells, dose response, cell-based, HCT116, human colon tumor (AID 1045); type: functional;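 note: HCT116 colon tumor cells with beta catenin knocked out; cells exposed to compound for 60 hours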
[6] = cytotoxicity toward DRD oncogenic fibroblasts, dose response, cell-based, non-viral oncogenic, luminescence (AID 1934); type: functional; settings: Homo sapiens
BJ [7] = assay: cytotoxicity toward Ras-transformed BJeLR fibroblasts, dose response, cell-based, alamar blue fluorescence, cherrypicked samples (AID 2631); type: functional; settings: Homo sapiens;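 note: confirmatory dose-response assay in RAS-dependent BJ fibroblasts engineered with TERT, LT and ST, with cytotoxicity read by fluorescence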
BJ [8] = assay: cells; type: functional, cell-based; settings: Homo sapiens
[9] = C. albicans growth with fluconazole, confirmation, fluorescence, retest (AID 2467); type: functional, cell-based
BJ [10] = assay: cytotoxicity toward BJ-TERT fibroblasts, dose response, cell-based, RAS-independent, luminescence (AID 1933); type: functional; settings: Homo sapiens
Caspase-3 = molecular target: T1, Caspase-3 (Homo sapiens, UniProt P42574); type: functional;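 note: Dose-response selectivity test against caspase-3 for candidate inhibitors of sentrin-specific proteases (SENPs)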
T1 sequence (P42574 whole entry): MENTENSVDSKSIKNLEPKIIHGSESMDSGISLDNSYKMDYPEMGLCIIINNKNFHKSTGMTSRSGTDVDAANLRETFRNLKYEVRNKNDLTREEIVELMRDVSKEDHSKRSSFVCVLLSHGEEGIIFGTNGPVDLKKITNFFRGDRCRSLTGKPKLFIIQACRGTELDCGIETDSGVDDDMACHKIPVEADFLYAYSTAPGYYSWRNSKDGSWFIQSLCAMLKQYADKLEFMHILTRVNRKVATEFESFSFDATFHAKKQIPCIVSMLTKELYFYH

[11] = molecular target: T2, Sentrin-specific protease 8 (Homo sapiens, UniProt Q96LD8); type: functional;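 note: luminescence read-out of SENP8 inhibition, dose-response confirmation following an ultra-high-throughput screen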
T2 sequence (Q96LD8 whole entry): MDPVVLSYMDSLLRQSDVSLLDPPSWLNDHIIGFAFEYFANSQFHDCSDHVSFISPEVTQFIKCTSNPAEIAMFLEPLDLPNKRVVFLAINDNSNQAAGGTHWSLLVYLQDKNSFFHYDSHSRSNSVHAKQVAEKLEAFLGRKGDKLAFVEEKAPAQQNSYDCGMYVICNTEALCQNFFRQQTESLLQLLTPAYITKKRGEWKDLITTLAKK

[12] = molecular target: T3, Sentrin-specific protease 7 (Homo sapiens, UniProt Q9BQF6); type: functional;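 note: Luminescence-based dose-response confirmation of ultra-high-throughput screening hits, measuring inhibition of SENP7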
T3 sequence (Q9BQF6 whole entry): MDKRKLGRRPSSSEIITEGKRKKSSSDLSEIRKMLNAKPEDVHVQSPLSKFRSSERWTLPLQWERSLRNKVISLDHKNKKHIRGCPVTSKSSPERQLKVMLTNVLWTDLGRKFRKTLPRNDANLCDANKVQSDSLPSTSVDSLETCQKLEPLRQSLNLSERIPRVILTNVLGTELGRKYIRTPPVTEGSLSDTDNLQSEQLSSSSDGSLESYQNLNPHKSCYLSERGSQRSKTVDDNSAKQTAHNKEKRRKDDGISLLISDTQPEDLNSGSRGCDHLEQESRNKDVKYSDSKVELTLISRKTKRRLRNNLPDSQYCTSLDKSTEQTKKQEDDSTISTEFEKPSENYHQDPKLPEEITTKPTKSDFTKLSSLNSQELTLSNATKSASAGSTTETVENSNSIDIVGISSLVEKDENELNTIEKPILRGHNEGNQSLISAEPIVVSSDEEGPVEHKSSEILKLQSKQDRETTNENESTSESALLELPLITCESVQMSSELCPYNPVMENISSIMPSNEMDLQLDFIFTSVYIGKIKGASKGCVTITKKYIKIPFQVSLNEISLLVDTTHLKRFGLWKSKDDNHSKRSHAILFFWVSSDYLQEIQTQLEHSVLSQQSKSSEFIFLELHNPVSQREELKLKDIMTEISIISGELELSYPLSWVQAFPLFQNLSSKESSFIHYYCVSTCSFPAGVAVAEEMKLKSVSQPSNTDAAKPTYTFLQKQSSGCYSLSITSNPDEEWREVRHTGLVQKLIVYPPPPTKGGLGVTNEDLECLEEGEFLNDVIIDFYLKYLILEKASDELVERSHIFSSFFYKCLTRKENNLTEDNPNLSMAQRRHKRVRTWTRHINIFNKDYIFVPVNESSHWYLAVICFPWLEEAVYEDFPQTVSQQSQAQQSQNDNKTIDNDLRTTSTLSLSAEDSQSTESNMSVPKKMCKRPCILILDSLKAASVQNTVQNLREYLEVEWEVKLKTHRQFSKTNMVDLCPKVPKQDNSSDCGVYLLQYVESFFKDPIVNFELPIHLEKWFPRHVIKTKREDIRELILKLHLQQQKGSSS

[13] = molecular target: T4, Sentrin-specific protease 6 (Homo sapiens, UniProt Q9GZR1); type: functional;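 note: Luminescence-based dose-response confirmatory assay of SENP6 inhibition, following up an ultra-high-throughput screen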
T4 sequence (Q9GZR1 whole entry): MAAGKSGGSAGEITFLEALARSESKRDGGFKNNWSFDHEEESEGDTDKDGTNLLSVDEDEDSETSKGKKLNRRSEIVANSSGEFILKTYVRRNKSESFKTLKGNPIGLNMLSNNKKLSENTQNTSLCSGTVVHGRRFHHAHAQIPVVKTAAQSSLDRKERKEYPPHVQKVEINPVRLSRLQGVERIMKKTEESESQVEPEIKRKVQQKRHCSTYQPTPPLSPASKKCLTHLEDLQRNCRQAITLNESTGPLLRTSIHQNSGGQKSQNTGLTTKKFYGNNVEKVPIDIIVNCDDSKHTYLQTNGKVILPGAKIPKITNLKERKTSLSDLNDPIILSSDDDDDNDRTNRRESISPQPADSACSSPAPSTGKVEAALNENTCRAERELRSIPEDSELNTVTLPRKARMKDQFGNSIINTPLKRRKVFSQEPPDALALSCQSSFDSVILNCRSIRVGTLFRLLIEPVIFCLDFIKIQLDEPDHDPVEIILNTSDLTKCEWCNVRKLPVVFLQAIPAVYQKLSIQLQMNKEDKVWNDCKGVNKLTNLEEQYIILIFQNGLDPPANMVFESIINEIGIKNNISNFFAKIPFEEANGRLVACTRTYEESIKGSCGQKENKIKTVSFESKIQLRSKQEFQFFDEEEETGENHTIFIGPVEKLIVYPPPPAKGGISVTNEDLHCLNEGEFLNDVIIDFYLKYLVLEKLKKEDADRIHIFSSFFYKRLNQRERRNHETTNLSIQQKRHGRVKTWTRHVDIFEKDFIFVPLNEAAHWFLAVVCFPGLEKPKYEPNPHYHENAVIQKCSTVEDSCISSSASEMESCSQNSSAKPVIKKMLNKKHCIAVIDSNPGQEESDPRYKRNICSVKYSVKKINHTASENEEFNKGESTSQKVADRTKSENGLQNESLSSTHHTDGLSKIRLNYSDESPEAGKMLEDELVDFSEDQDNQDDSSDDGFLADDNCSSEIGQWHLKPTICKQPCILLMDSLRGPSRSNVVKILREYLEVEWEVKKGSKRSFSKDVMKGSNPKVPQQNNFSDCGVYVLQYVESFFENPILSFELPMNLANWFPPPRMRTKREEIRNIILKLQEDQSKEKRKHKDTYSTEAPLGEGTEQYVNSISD

[14] = molecular target: T5, Rac GTPase-activating protein 1 (Homo sapiens, UniProt Q9H0H5); assay: MgcRacGAP GTPase-activating activity inhibitors, confirmation, biochemical, ADP Hunter fluorescence, primary and confirmatory (AID 624330); type: functional
T5 sequence (Q9H0H5 whole entry): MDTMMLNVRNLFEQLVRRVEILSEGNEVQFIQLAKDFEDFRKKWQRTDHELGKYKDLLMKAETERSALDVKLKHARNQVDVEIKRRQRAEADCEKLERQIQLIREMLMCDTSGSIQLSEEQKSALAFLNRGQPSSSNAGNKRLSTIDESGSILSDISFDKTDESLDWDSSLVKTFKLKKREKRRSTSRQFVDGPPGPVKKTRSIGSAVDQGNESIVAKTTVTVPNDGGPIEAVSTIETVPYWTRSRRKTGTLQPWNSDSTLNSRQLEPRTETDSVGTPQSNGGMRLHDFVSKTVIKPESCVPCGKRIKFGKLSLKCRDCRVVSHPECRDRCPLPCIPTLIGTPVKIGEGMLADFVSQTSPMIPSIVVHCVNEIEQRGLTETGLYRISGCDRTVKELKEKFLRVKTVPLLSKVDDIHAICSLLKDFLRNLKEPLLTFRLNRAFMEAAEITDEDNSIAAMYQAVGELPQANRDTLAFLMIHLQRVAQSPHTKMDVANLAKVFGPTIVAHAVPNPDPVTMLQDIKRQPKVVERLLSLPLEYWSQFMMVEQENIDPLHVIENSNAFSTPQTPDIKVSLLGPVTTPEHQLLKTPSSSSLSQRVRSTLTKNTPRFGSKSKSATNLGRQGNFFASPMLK

HeLa = assay: HeLa cell cytotoxicity, dose response, cytotoxicity control for MITF activator project, CellTiter-Glo luminescence, cherry-pick samples (AID 540259); type: functional, cell-based; settings: Homo sapiens
Cytochrome P450 1A2 = molecular target: T6, Cytochrome P450 1A2 (Homo sapiens, UniProt P05177);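 note: PubChem cytochrome P450 panel assay, CYP1A2 panel member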
T6 sequence (P05177 whole entry): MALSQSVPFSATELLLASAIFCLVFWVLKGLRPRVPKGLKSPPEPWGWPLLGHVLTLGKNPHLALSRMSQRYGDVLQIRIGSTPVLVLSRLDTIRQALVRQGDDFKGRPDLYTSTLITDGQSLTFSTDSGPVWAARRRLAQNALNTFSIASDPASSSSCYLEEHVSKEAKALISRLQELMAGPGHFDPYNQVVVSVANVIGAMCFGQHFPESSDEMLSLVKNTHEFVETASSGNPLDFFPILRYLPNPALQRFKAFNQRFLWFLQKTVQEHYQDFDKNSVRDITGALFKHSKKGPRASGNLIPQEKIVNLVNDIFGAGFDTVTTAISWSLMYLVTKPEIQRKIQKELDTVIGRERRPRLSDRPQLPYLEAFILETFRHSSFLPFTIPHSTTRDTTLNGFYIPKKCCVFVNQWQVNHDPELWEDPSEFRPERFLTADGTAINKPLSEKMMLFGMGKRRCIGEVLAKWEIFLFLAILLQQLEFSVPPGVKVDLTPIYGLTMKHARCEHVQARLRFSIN

HEK293 = assay: inhibitors of LMP1-driven NF-kB reporter, dose response, cell-based, HEK293, luciferase, cherry-pick (AID 588343); type: functional; settings: Homo sapiens

Sequence of Cytochrome P450 2D6 (P10635 whole entry): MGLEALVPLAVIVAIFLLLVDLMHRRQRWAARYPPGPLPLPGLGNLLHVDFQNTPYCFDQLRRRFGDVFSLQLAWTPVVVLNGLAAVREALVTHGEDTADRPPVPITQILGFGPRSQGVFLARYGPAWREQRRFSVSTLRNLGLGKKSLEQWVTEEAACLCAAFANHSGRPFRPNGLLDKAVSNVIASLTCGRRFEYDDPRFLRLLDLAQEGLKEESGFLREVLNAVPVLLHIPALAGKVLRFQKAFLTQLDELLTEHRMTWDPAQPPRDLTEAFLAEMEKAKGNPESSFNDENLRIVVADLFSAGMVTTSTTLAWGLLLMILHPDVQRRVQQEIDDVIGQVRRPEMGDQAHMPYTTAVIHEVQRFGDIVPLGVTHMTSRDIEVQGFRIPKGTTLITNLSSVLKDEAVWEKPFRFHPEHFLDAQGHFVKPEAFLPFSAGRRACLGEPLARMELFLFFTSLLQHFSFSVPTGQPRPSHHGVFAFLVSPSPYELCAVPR
Sequence of Cytochrome P450 3A4 (P08684 whole entry): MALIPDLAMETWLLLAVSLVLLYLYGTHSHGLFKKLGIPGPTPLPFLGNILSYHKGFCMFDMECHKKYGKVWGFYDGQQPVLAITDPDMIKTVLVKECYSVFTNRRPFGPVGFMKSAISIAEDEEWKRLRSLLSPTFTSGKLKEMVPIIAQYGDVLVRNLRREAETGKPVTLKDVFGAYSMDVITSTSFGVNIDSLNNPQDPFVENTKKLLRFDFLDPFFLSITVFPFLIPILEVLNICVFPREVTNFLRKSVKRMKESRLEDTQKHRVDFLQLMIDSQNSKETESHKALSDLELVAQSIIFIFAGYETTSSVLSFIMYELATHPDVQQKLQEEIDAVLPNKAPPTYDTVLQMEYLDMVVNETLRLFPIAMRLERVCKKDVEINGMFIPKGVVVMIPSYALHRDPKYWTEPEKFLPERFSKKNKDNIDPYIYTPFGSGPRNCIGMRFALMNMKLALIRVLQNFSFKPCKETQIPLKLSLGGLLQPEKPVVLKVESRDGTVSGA
Sequence of Cytochrome P450 2C19 (P33261 whole entry): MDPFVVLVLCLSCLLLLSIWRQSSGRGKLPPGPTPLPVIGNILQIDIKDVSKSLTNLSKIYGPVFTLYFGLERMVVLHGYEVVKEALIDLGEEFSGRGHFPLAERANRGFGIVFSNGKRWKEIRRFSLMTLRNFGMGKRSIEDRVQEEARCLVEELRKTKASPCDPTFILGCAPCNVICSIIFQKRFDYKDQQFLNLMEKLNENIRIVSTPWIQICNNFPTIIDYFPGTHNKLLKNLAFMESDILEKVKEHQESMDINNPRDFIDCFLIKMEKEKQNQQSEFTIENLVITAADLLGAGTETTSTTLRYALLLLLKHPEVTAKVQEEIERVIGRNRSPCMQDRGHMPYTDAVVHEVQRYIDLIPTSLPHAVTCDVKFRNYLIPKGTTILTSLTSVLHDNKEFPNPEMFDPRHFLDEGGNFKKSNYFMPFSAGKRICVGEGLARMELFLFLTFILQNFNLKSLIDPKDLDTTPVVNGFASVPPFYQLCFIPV
Sequence of Voltage-dependent T-type calcium channel subunit alpha-1H (O95180 whole entry): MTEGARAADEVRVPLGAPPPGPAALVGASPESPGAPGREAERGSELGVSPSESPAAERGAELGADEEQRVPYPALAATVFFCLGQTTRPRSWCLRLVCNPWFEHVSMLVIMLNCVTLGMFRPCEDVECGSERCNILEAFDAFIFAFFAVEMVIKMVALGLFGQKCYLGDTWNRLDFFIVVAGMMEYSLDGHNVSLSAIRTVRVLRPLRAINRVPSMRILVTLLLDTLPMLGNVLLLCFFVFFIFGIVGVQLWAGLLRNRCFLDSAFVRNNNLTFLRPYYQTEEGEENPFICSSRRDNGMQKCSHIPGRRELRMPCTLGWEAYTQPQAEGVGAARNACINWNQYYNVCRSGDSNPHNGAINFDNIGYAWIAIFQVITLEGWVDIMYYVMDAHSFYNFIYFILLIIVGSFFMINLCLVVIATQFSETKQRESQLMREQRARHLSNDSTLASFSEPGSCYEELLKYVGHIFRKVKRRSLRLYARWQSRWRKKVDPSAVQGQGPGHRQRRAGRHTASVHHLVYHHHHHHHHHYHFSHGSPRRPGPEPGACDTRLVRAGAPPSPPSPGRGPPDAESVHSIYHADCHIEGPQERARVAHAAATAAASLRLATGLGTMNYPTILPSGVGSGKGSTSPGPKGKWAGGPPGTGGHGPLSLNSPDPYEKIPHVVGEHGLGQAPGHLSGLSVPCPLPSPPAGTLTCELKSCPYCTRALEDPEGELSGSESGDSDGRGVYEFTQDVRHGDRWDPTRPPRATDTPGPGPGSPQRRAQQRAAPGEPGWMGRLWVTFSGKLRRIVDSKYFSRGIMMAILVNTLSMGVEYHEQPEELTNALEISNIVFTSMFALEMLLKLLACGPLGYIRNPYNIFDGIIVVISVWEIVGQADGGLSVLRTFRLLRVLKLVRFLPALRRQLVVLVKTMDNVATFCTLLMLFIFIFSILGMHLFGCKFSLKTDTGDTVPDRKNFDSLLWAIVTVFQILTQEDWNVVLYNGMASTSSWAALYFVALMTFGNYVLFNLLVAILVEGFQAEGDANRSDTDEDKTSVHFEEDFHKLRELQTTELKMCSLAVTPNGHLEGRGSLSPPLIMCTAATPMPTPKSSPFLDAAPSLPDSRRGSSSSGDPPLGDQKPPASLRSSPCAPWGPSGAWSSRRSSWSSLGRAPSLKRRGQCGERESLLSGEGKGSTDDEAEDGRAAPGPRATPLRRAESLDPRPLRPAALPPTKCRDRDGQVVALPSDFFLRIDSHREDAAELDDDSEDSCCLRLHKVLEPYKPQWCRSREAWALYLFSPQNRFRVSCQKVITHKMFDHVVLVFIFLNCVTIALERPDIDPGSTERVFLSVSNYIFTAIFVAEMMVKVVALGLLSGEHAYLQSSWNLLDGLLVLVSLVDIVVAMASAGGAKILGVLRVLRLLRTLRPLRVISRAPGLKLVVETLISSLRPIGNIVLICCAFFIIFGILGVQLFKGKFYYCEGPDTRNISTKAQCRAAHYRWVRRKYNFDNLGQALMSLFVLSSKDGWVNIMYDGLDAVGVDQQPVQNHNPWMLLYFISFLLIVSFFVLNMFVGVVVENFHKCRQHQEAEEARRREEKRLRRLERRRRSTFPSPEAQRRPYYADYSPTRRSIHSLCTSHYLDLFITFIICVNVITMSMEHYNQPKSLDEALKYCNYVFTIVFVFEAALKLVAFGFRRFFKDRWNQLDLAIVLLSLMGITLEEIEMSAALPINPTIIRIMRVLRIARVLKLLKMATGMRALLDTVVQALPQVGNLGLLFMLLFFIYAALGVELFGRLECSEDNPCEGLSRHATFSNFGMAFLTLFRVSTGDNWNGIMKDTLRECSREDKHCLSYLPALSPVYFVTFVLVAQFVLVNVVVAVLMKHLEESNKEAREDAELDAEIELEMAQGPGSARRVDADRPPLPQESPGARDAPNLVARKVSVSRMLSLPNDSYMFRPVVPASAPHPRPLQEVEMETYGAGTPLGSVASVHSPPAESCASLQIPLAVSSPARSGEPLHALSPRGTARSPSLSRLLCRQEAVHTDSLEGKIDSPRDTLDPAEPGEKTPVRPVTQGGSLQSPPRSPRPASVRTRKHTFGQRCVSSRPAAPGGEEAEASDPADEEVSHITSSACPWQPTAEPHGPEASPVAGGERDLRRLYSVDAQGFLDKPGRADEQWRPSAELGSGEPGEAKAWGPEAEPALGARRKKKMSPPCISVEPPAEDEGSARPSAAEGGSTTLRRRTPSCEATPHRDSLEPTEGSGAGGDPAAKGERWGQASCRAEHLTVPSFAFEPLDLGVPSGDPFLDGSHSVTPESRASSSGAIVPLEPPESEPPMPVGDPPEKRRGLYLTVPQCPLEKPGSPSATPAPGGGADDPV

CC(C)NC(=O)N1CCCC2(CCN(C(=O)c3cccc(F)c3)CC2)C1
AC50 (Cytochrome P450 2C19): inconclusive
AC50 (Cytochrome P450 2D6): inconclusive
AC50 (Cytochrome P450 3A4): 25.1 µM (inconclusive)

Cc1ccc(-c2nnn(CC(=O)N(c3ccccc3)C(C(=O)NCC3CCCO3)c3ccc(Cl)cc3)n2)cc1 (stereo not drawn)
EC50 [1]: 11.1 µM (active)
AC50 (Cytochrome P450 2C19; read-out: AC50): 1.12 µM (inconclusive)
AC50 (Cytochrome P450 2D6): inconclusive
AC50 (Cytochrome P450 3A4): 39.8 µM (inconclusive)

O=c1c2ccccc2nc(/C=C/c2ccc([N+](=O)[O-])o2)n1CCCO
EC50 (BJ [2]): 3.96 µM (active)
EC50 [3]: < 0.059 µM (active)
EC50 [4]: 7.14 µM (inconclusive)
EC50 [5]: < 0.059 µM (active)
EC50 [6]: 5.06 µM (inconclusive)
EC50 (BJ [7]): 3.07 µM (active)
EC50 (BJ [8]): 7.21 µM (inconclusive)
EC50 [9]: 0.503 µM (active)
EC50 (BJ [10]): 6.12 µM (inconclusive)

CCN(CC)c1ccc(Nc2nc(-c3cccnc3)cs2)cc1
IC50 (Caspase-3): 21.5 µM (active)
IC50 [11]: 26.7 µM (active)
IC50 [12]: 4.32 µM (active)
IC50 [13]: 16.9 µM (active)
IC50 [14]: 185 µM (active)
AC50 (HeLa): 77 µM (active)

Cc1nc(-c2noc(-c3ccccc3Cl)n2)c(C(F)(F)F)o1
AC50 (HeLa): 291 µM (active)

CCOC(=O)NCN1C(=O)C2C3C=CC(C3)C2C1=O (stereo not drawn)
AC50 (Cytochrome P450 1A2): 14.1 µM (inconclusive)
AC50 (Cytochrome P450 2D6): inconclusive
AC50 (Cytochrome P450 3A4): 6.31 µM (inconclusive)

COc1ccc(C=NNc2nc3ccccc3s2)cc1
AC50 (HEK293): 2.96 µM (active)

Cc1ccc(/C=N/c2sc3c(c2C#N)CCC3)s1
AC50 (HeLa): 82 µM (active)
